Measurements taken from ChEMBL document CHEMBL1150798, “Combined therapies in a murine model of blastoschizomycosis” (2007).
≈ marks a conversion by molar mass, not a printed value. Starred links: 1 amine or outer side, 2 acyl side, 3 side chain; linkers in the order of their positions; H or OH if unused. Positions of bridges follow the written chain, without caps; N, C: chain ends. Non-standard residues stand in square brackets, D forms with d. Residues, ends and D or L forms follow the SMILES beside them. *: point of attachment. hTyr(3S-OH,4S-OH,3'-OSO3H) = N[C@H](C(=O)O)[C@H](O)[C@@H](O)c1ccc(O)c(OS(=O)(=O)O)c1; Orn(4R-OH,5R-OH) = O=C([C@H](C[C@@H](O)[C@@H](O)N[*:3])N[*:1])[*:2]; Pro(3S-OH,4S-Me) = C[C@H]1CN[C@H](C(=O)O)[C@H]1O; X1 = CCCCCOc1ccc(-c2cc(-c3ccc(C(=O)*)cc3)no2)cc1; Gln(3R-OH) = NC(=O)C[C@@H](O)[C@H](N)C(=O)O; Hyp = O=C(O)[C@@H]1C[C@@H](O)CN1

Tests used:
Assay type in all cases: functional
Magnusiomyces capitatus [1] = assay: Antimicrobial activity against Blastoschizomyces capitatus IHEM 16105 isolate infected OF1 mouse blastoschizomycosis model assessed as spleen microbial count per gram of tissue at 60 mg/kg/day, po for 6 days administered 1 hr before microbial challenge
Magnusiomyces capitatus [2] = assay: Antimicrobial activity against Blastoschizomyces capitatus IHEM 16105 isolate by microdilution method
Magnusiomyces capitatus [3] = assay: Antimicrobial activity against Blastoschizomyces capitatus IHEM 5666 isolate by microdilution method
Magnusiomyces capitatus [4] = assay: Antimicrobial activity against Blastoschizomyces capitatus IHEM 16105 isolate infected OF1 mouse blastoschizomycosis model assessed as mean survival time at 60 mg/kg/day, po for 6 days administered 1 hr before microbial challenge
Magnusiomyces capitatus [5] = assay: Antimicrobial activity against Blastoschizomyces capitatus IHEM 5666 isolate infected OF1 mouse blastoschizomycosis model assessed as mean survival time at 60 mg/kg/day, po for 6 days administered 1 hr before microbial challenge
Magnusiomyces capitatus [6] = assay: Antimicrobial activity against Blastoschizomyces capitatus IHEM 16105 isolate infected OF1 mouse blastoschizomycosis model assessed as liver microbial count per gram of tissue at 60 mg/kg/day, po for 6 days administered 1 hr before microbial challenge
Magnusiomyces capitatus [7] = assay: Antimicrobial activity against Blastoschizomyces capitatus IHEM 16105 isolate infected OF1 mouse blastoschizomycosis model assessed as kidney microbial count per gram of tissue at 60 mg/kg/day, po for 6 days administered 1 hr before microbial challenge
Magnusiomyces capitatus [8] = assay: Antimicrobial activity against Blastoschizomyces capitatus IHEM 5666 isolate infected OF1 mouse blastoschizomycosis model assessed as liver microbial count at 60 mg/kg/day, po for 6 days administered 1 hr before microbial challenge
Magnusiomyces capitatus [9] = assay: Antimicrobial activity against Blastoschizomyces capitatus IHEM 5666 isolate infected OF1 mouse blastoschizomycosis model assessed as spleen microbial count at 60 mg/kg/day, po for 6 days administered 1 hr before microbial challenge
Magnusiomyces capitatus [10] = assay: Antimicrobial activity against Blastoschizomyces capitatus IHEM 5666 isolate infected OF1 mouse blastoschizomycosis model assessed as kidney microbial count at 60 mg/kg/day, po for 6 days administered 1 hr before microbial challenge
Magnusiomyces capitatus [11] = assay: Antimicrobial activity against Blastoschizomyces capitatus IHEM 5666 isolate infected OF1 mouse blastoschizomycosis model assessed as spleen microbial count at 10 mg/kg/day, sc for 6 days administered 1 hr before microbial challenge; conditions: route subcutaneous
Magnusiomyces capitatus [12] = assay: Antimicrobial activity against Blastoschizomyces capitatus IHEM 5666 isolate infected OF1 mouse blastoschizomycosis model assessed as kidney microbial count at 10 mg/kg/day, sc for 6 days administered 1 hr before microbial challenge; conditions: route subcutaneous
Magnusiomyces capitatus [13] = assay: Antimicrobial activity against Blastoschizomyces capitatus IHEM 16105 isolate infected OF1 mouse blastoschizomycosis model assessed as mean survival time at 10 mg/kg/day, sc for 6 days administered 1 hr before microbial challenge; conditions: route subcutaneous
Magnusiomyces capitatus [14] = assay: Antimicrobial activity against Blastoschizomyces capitatus IHEM 5666 isolate infected OF1 mouse blastoschizomycosis model assessed as mean survival time at 10 mg/kg/day, sc for 6 days administered 1 hr before microbial challenge; conditions: route subcutaneous
Magnusiomyces capitatus [15] = assay: Antimicrobial activity against Blastoschizomyces capitatus IHEM 16105 isolate infected OF1 mouse blastoschizomycosis model assessed as liver microbial count per gram of tissue at 10 mg/kg/day, sc for 6 days administered 1 hr before microbial challenge; conditions: route subcutaneous
Magnusiomyces capitatus [16] = assay: Antimicrobial activity against Blastoschizomyces capitatus IHEM 16105 isolate infected OF1 mouse blastoschizomycosis model assessed as spleen microbial count per gram of tissue at 10 mg/kg/day, sc for 6 days administered 1 hr before microbial challenge; conditions: route subcutaneous
Magnusiomyces capitatus [17] = assay: Antimicrobial activity against Blastoschizomyces capitatus IHEM 16105 isolate infected OF1 mouse blastoschizomycosis model assessed as kidney microbial count per gram of tissue at 10 mg/kg/day, sc for 6 days administered 1 hr before microbial challenge; conditions: route subcutaneous
Magnusiomyces capitatus [18] = assay: Antimicrobial activity against Blastoschizomyces capitatus IHEM 5666 isolate infected OF1 mouse blastoschizomycosis model assessed as liver microbial count at 10 mg/kg/day, sc for 6 days administered 1 hr before microbial challenge; conditions: route subcutaneous
Magnusiomyces capitatus [19] = assay: Antimicrobial activity against Blastoschizomyces capitatus IHEM 16105 isolate infected OF1 mouse blastoschizomycosis model assessed as mean survival time at 80 mg/kg/day, po for 6 days administered 1 hr before microbial challenge
Magnusiomyces capitatus [20] = assay: Antimicrobial activity against Blastoschizomyces capitatus IHEM 5666 isolate infected OF1 mouse blastoschizomycosis model assessed as mean survival time at 80 mg/kg/day, po for 6 days administered 1 hr before microbial challenge
Magnusiomyces capitatus [21] = assay: Antimicrobial activity against Blastoschizomyces capitatus IHEM 16105 isolate infected OF1 mouse blastoschizomycosis model assessed as liver microbial count per gram of tissue at 80 mg/kg/day, po for 6 days administered 1 hr before microbial challenge
Magnusiomyces capitatus [22] = assay: Antimicrobial activity against Blastoschizomyces capitatus IHEM 16105 isolate infected OF1 mouse blastoschizomycosis model assessed as spleen microbial count per gram of tissue at 80 mg/kg/day, po for 6 days administered 1 hr before microbial challenge
Magnusiomyces capitatus [23] = assay: Antimicrobial activity against Blastoschizomyces capitatus IHEM 16105 isolate infected OF1 mouse blastoschizomycosis model assessed as kidney microbial count per gram of tissue at 80 mg/kg/day, po for 6 days administered 1 hr before microbial challenge
Magnusiomyces capitatus [24] = assay: Antimicrobial activity against Blastoschizomyces capitatus IHEM 5666 isolate infected OF1 mouse blastoschizomycosis model assessed as liver microbial count per gram of tissue at 80 mg/kg/day, po for 6 days administered 1 hr before microbial challenge
Magnusiomyces capitatus [25] = assay: Antimicrobial activity against Blastoschizomyces capitatus IHEM 5666 isolate infected OF1 mouse blastoschizomycosis model assessed as spleen microbial count per gram of tissue at 80 mg/kg/day, po for 6 days administered 1 hr before microbial challenge
Magnusiomyces capitatus [26] = assay: Antimicrobial activity against Blastoschizomyces capitatus IHEM 5666 isolate infected OF1 mouse blastoschizomycosis model assessed as kidney microbial count per gram of tissue at 80 mg/kg/day, po for 6 days administered 1 hr before microbial challenge

## Nc1nc(=O)[nH]cc1F [FLUCYTOSINE]
Magnusiomyces capitatus [1]
  log10cfu: 5.45
Magnusiomyces capitatus [2]
  MIC: 0.25 µg/mL (≈ 1.94 µM)
Magnusiomyces capitatus [3]
  MIC: 64 µg/mL (≈ 496 µM)
Magnusiomyces capitatus [4]
  MST: 17.7 days
Magnusiomyces capitatus [5]
  MST: 7.6 days
Magnusiomyces capitatus [6]
  log10cfu: 4.28
Magnusiomyces capitatus [7]
  log10cfu: 7.29
Magnusiomyces capitatus [8]
  log10cfu: 5.69
Magnusiomyces capitatus [9]
  log10cfu: 6.76
Magnusiomyces capitatus [10]
  log10cfu: 7.13

## CCCCCOc1ccc(-c2cc(-c3ccc(C(=O)N[C@H]4C[C@@H](O)[C@@H](O)NC(=O)[C@@H]5[C@@H](O)[C@@H](C)CN5C(=O)[C@H]([C@H](O)CC(N)=O)NC(=O)[C@H]([C@H](O)[C@@H](O)c5ccc(O)c(OS(=O)(=O)O)c5)NC(=O)[C@@H]5C[C@@H](O)CN5C(=O)[C@H]([C@@H](C)O)NC4=O)cc3)no2)cc1 [MICAFUNGIN] (X1-[Orn(4R-OH,5R-OH)]T[Hyp][hTyr(3S-OH,4S-OH,3'-OSO3H)][Gln(3R-OH)][Pro(3S-OH,4S-Me)]; lactam 1-C)
Magnusiomyces capitatus [11]
  log10cfu: 7.03
Magnusiomyces capitatus [12]
  log10cfu: 7.52
Magnusiomyces capitatus [2]
  MIC: 64 µg/mL (≈ 50.4 µM)
Magnusiomyces capitatus [3]
  MIC: 64 µg/mL (≈ 50.4 µM)
Magnusiomyces capitatus [13]
  MST: 7.59 days
Magnusiomyces capitatus [14]
  MST: 6.6 days
Magnusiomyces capitatus [15]
  log10cfu: 5.26
Magnusiomyces capitatus [16]
  log10cfu: 7.69
Magnusiomyces capitatus [17]
  log10cfu: 7.5
Magnusiomyces capitatus [18]
  log10cfu: 5.32

## OC(Cn1cncn1)(Cn1cncn1)c1ccc(F)cc1F [FLUCONAZOLE]
Magnusiomyces capitatus [3]
  MIC: 16 µg/mL (≈ 52.2 µM)
Magnusiomyces capitatus [19]
  MST: 25.7 days
Magnusiomyces capitatus [20]
  MST: 30 days
Magnusiomyces capitatus [21]
  log10cfu: 1.37
Magnusiomyces capitatus [22]
  log10cfu: 1.59
Magnusiomyces capitatus [23]
  log10cfu: 3.72
Magnusiomyces capitatus [24]
  log10cfu: 2.49
Magnusiomyces capitatus [25]
  log10cfu: 2.05
Magnusiomyces capitatus [26]
  log10cfu: 4.31
